Tests used:
[1] = test system: MCF-7 breast carcinoma cells; test: Suppression of thymidine incorporation, dose-response (FIG. 13); type: cell-based, human; details: MCF-7 with 17-β-estradiol, 72 h; oleanolic acid statement at concentrations of 1 μM or less
Method: Inhibitors of cell proliferation are known to be useful chemopreventive and chemotherapeutic agents. CDDO was tested against a wide variety of cells derived from highly aggressive leukemias and carcinomas, as well as from non-neoplastic tissues. NRP-152 cells were grown as described in Danielpour et al., 1994. MCF-7 cells were grown in phenol red-free RPMI 1640/10% charcoal-stripped FBS with added 17-β-estradiol (10 μM). Triterpenoids were added at the time of plating, and 72 h later ^3H-thymidine (1 μCi/well) was added for the final 2 h of incubation. Incorporation of thymidine was measured after cells were precipitated with TCA (10%), washed, and solubilized. The symbols used in FIG. 13 are CDDO, ▪; TP-82, ◯; and oleanolic acid; ●.

COX-2 enzymatic activity = biological target: T1, COX-2 enzymatic activity (Mus musculus, UniProt Q05769); test: Prostaglandin production in RAW cells with enzyme synthesis already induced; type: cell-based; details: added after enzyme synthesis induced; data not shown
T1 construct: added to RAW cells in which synthesis of these two enzymes has already been induced; endogenous in cells; host or cells: RAW 264.7 mouse macrophage-like cells, enzyme synthesis pre-induced
T1 sequence (Q05769 18-604): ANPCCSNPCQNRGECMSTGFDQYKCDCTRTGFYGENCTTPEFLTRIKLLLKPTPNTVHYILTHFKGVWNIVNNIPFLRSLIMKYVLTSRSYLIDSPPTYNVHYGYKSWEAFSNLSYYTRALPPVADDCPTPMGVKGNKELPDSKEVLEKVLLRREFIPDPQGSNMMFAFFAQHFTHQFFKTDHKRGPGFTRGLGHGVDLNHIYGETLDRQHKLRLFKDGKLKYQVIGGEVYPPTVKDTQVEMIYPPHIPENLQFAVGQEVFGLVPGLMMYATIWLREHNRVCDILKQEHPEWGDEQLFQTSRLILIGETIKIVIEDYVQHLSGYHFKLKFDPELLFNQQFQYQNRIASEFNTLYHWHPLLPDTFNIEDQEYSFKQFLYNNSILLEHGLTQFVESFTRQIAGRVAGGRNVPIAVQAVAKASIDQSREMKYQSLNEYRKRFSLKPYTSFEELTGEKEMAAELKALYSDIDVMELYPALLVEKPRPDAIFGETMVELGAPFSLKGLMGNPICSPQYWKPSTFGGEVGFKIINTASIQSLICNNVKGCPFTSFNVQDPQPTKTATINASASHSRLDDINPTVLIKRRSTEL
Source text: These effects of CDDO have been seen in primary mouse macrophages, a mouse macrophage-like tumor cell line (RAW 264.7), and in non-neoplastic human colon fibroblasts. […] Neither iNOS nor COX-2 expression can be detected in these cells until they are stimulated by an inflammatory mediator such as IFN-γ, or LPS. […] The above effects on INOS and COX-2 are also reflected in the cumulative production of their respective enzyme products, NO and PGE2, as measured in primary macrophages (FIG. 14C). […] Likewise, the actions of CDDO are not blocked by the glucocorticoid antagonist, RU-486, which is known to bind to the glucocorticoid receptor (data not shown). In these regards, CDDO is identical to the other oleanolic acid derivatives previously studied (Suh et al., 1998).

[2] = test system: NB4 promyelocytic leukemia line; test: Differentiation of leukemia cells (data not shown); type: cell-based, human; details: by itself or in combination with TGF-β1
[3] = test system: NT2/D1 embryonal carcinoma cells; test: Inhibition of cell proliferation (3H-thymidine incorporation); type: cell-based, human; details: 3 or 4 days, 3H-thymidine 2 h
Method: (§1) All cells were obtained from ATCC, except as noted. They were grown under standard conditions in either DMEM, DMEM/F 12, or RPMI 1640 media plus 5-10% FBS. CDDO, over the dose range 10^−6 to 10^−10 M, was added to cultures at the time of seeding. Three or 4 days later, cells were treated with ^3H-thymidine for 2 h (12 h in the case of leukemia cells), and then incorporation was measured. “ER” means estrogen receptor.

[4] = test system: KG-1 acute myeloid leukemia cells; test: as above; type: cell-based, human; details: 3 or 4 days, 3H-thymidine 12 h
Method: as §1

[5] = test system: AML193 acute myelocytic leukemia cells; test: as above; type: cell-based, human; details: 3 or 4 days, 3H-thymidine 12 h
Method: as §1

[6] = test system: THP-1 monocytic leukemia cells; test: as above; type: cell-based, human; details: 3 or 4 days, 3H-thymidine 12 h
Method: as §1

A2058 melanoma cells = test: as above; type: cell-based, human; details: 3 or 4 days, 3H-thymidine 2 h
Method: as §1

[7] = test system: NB4 promyelocytic leukemia cells; test: as above; type: cell-based, human; details: 3 or 4 days, 3H-thymidine 12 h
Method: as §1

[8] = test system: 21-MT-1 ER negative breast carcinoma cells; test: as above; type: cell-based, human; details: 3 or 4 days, 3H-thymidine 2 h
Method: as §1

[9] = test system: MCF-7 ER positive breast carcinoma cells; test: as above; type: cell-based, human; details: 3 or 4 days, 3H-thymidine 2 h
Method: as §1

[10] = test system: HL-60 myelocytic leukemia cells; test: as above; type: cell-based, human; details: 3 or 4 days, 3H-thymidine 12 h
Method: as §1

[11] = test system: MDA-MB-231 ER negative breast carcinoma cells; test: as above; type: cell-based, human; details: 3 or 4 days, 3H-thymidine 2 h
Method: as §1

[12] = test system: U937 monocytic leukemia cells; test: as above; type: cell-based, human; details: 3 or 4 days, 3H-thymidine 12 h
Method: as §1

[13] = test system: 21-NT ER negative breast carcinoma cells; test: as above; type: cell-based, human; details: 3 or 4 days, 3H-thymidine 2 h
Method: as §1

[14] = test system: 21-MT-2 ER negative breast carcinoma cells; test: as above; type: cell-based, human; details: 3 or 4 days, 3H-thymidine 2 h
Method: as §1

[15] = test system: ML-1 myeloblastic leukemia cells; test: as above; type: cell-based, human; details: 3 or 4 days, 3H-thymidine 12 h
Method: as §1

[16] = test system: PGE2 production in primary macrophages; test: Suppression of PGE2 production in primary macrophages (FIG. 14C); type: cell-based, mouse; details: levels as low as 10^−9 M; IFN-γ 5 ng/ml and LPS 5 ng/ml, 48 h
Method: FIG. 14(A) illustrates Western blots; primary mouse macrophages; IFN-γ, 10 ng/ml; LPS, 2 ng/ml were added to cultures together with triterpenoids or dexamethasone (concentrations shown as […]); cells were harvested at 12 h. FIG. 14(B) illustrates Northern blots, RAW 264.7 macrophage-like cell line. IFN-γ, 10 ng/ml; LPS, 1 ng/ml; TNF-α, 10 ng/ml, were added to cultures together with CDDO or dexamethasone. RNA prepared after 12 h; GAPDH used as a loading control. FIG. 14(C) illustrates suppression of production of NO and PGEF in primary macrophages. For NO studies, cells were treated with IFN-γ, 10 ng/ml, together with CDDO (M), dexamethasone (O), TP-82 (□), or oleanolic acid (A). After 48 h, supernatants were analyzed for NO by the Griess reaction. For PGEF studies, cells were treated with IFN-γ, 5 ng/ml, and LPS, 5 ng/ml, together with the same set of inhibitors. After 48 h, PGE was measured in supernatants by immunoassay. Control values (no inhibition) for NO and PGE2 were 4.7 nmol/[…] and 2.2 ng/ml/2×10^5 cells, respectively. FIGS. (14D) and (14E) illustrate (human colon myofibroblasts) ^18Co cells grown in MEM/10% FBS; other methods are the same as reported above for macrophages. FIG. 14(D) illustrates Northern blots showing dose-response for suppression of COX-2 mRNA after induction with IL-1β (30 pg/ml). CDDO was added together with IL-1. […]

**Q.** With `CC1(C)CC[C@]2(C(=O)O)CC[C@]3(C)[C@H](C(=O)C=C4[C@@]5(C)C=C(C#N)C(=O)C(C)(C)[C@@H]5CC[C@]43C)[C@@H]2C1` [Compound 6, 2-cyano-3,12-dioxoolean-1,9-dien-28-oic acid] as the compound, how does the suppressing thymidine incorporation [1] read?
**A.** highly active in the nanomolar range

**Q.** What about the “immediate effect on prostaglandin production (direct inhibition of COX-2)” value (COX-2 enzymatic activity) of the same compound?
**A.** no immediate effect

**Q.** And the differentiative effects [2]?
**A.** differentiative effects

**Q.** What about the IC50 [3] of the same compound?
**A.** 100 nM

**Q.** And the IC50 [4]?
**A.** 200 nM

**Q.** What about the IC50 [5] of the same compound?
**A.** 400 nM

**Q.** And the IC50 [6]?
**A.** 50 nM

**Q.** And the IC50 (A2058 melanoma cells)?
**A.** 200 nM

**Q.** What about the IC50 [7] of the same compound?
**A.** 40 nM

**Q.** And the IC50 [8]?
**A.** 200 nM

**Q.** And the IC50 [9]?
**A.** 30 nM

**Q.** And the IC50 [10]?
**A.** 100 nM

**Q.** What about the IC50 [11] of the same compound?
**A.** 1000 nM

**Q.** And the IC50 [12]?
**A.** 200 nM

**Q.** What about the IC50 [13] of the same compound?
**A.** 1000 nM

**Q.** What about the IC50 [14] of the same compound?
**A.** 300 nM

**Q.** And the IC50 [15]?
**A.** 100 nM

**Q.** And the “inhibition of cumulative PGE2 production” value [16]?
**A.** Significant inhibition

— patent publication US20080234368A9, “Therapeutic compositions and methods of use” (Trustees of Dartmouth College, priority 1998, published 2008)
